According to PubChem BioAssay (NCI):
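Five compound concentrations were applied to cells in 96-well plates for 48 hours; endpoints were derived by simple linear interpolation of the resulting dose-response curve. GI50 marks 50% less growth. TGI marks complete inhibition of growth.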

Tests used:
Assay in all cases: NCI tumour cell line growth inhibition, 48 h
[1] = system: HCC-2998 colon
[2] = system: HCT-15 colon
[3] = system: IGROV1 ovarian
[4] = system: M14 melanoma
[5] = system: MOLT-4 leukemia
[6] = system: NCI-H23 lung
[7] = system: TK-10 renal
[8] = system: U251 CNS
[9] = system: PC-3 prostate
[10] = system: SR leukemia

SMILES | TGI [1] [µM] | TGI [2] [µM] | TGI [3] [µM] | TGI [4] [µM] | TGI [5] [µM] | TGI [6] [µM] | TGI [7] [µM] | TGI [8] [µM] | GI50 [1] [µM] | GI50 [2] [µM] | GI50 [3] [µM] | GI50 [4] [µM] | GI50 [5] [µM] | GI50 [6] [µM] | GI50 [9] [µM] | TGI [9] [µM] | GI50 [7] [µM] | GI50 [8] [µM] | TGI [10] [µM]
O=c1[nH]c(=O)n([C@@H]2C[C@H](CO)[C@H](O)C2)cc1/C=C/Br | > 100 | > 100 | > 100 | > 100 | > 100 | > 100 | > 100 | > 100 | – | – | – | – | – | – | – | – | – | – | –
COc1ccc2c(c1)C(=O)c1c-2n(CCCN=[N+]=[N-])c(=O)c2cc(N(C)C)ccc12 | > 100 | > 100 | > 100 | > 100 | > 100 | > 100 | > 100 | > 100 | > 100 | > 100 | > 100 | > 100 | > 100 | > 100 | > 100 | > 100 | > 100 | 19.5 | –
Clc1ccc(Cc2nc3ccccc3s2)c(Cl)c1 | 33.4 | 36.5 | 30.6 | 31.3 | 41.2 | – | 38.4 | – | – | – | – | – | – | – | – | – | – | – | –
CCc1cccc(C(C)C)c1NC(=O)C(=O)CC(=O)c1c(C)n([O-])c2ccccc2[n+]1=O | > 100 | > 100 | > 100 | > 100 | > 100 | > 100 | > 100 | > 100 | – | – | – | – | – | – | – | – | – | – | –
O=C(Nc1cccc([N+](=O)[O-])c1)C(=O)C(C(=O)c1ccccc1-c1ccccc1)C1OC(=O)c2ccccc21 (stereo unspecified) | 30.5 | – | 98.8 | 41.1 | 52.4 | 30.1 | 61.5 | 27.7 | – | – | – | – | – | – | – | – | – | – | –
Cc1c(S(C)(=O)=O)c(-c2cc(F)cc(N3CCN(c4ccc(NS(=O)(=O)c5ccc(N[C@H](CCN6CCC(C(=O)OCCCP(=O)(O)O)CC6)CSc6ccccc6)c(S(=O)(=O)C(F)(F)F)c5)cc4)CC3)c2)c(-c2ccc(Cl)cc2)n1C(C)C | > 100 | > 100 | > 100 | > 100 | – | > 100 | > 100 | > 100 | 2.13 | > 100 | > 100 | > 100 | – | > 100 | > 100 | > 100 | 25.8 | > 100 | –
C=CC1[C@H]2COC(C)(C)O[C@@H]2CC(=O)C1(C)C (stereo partly specified) | > 100 | – | – | > 100 | – | > 100 | > 100 | > 100 | – | – | – | – | – | – | – | – | – | – | –
O=C(Nc1cccs1)c1c(O)[nH]c(=S)[nH]c1=O | – | > 100 | > 100 | > 100 | > 100 | > 100 | > 100 | > 100 | – | – | – | – | – | – | – | – | – | – | > 100
C/C(=N\O)c1cccc(Nc2cc(-n3ccnn3)c3ccccc3n2)c1 | 56.5 | 27.4 | 27.7 | – | 28.2 | 48.6 | 46.3 | 62.2 | 20.5 | 13.5 | 12.6 | – | 11.6 | 21.3 | 15.6 | 38 | 16.9 | 19.9 | –
CCCCC1CC(c2cccc([N+](=O)[O-])c2)=NO1 (stereo unspecified) | > 100 | > 100 | > 100 | > 100 | > 100 | > 100 | > 100 | > 100 | – | – | – | – | – | – | – | – | – | – | > 100
